Key:
Experiment in all cases: relative viability (nuclei count vs DMSO), 5 days (fraction); higher = more cells survive
COR-L 105 = system: COR-L 105
Procedure, shortened: (§1)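 Relative viability divides the nuclei count in treated wells by that in vehicle wells. Lung cancer cell lines were seeded in 1536-well plates, dosed by pin tool the next day, and fixed and stained after 5 days in one step with final 0.05% Triton X-100, 1% formaldehyde and 1 ug/ml Hoechst. Dosing was a single drug or a fixed anchor-drug dose plus five library-drug doses (not always all listed) in √10 steps, and values are medians of duplicate plates imaged at 4×.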

COR-L23 = system: COR-L23
Procedure, shortened: as §1

HARA = system: HARA
Procedure, shortened: as §1

HCC-15 = system: HCC-15
Procedure, shortened: as §1

HOP-62 = system: HOP-62
Procedure, shortened: as §1

NCI-H1355 = system: NCI-H1355
Procedure, shortened: as §1

NCI-H1395 = system: NCI-H1395
Procedure, shortened: as §1

NCI-H1734 = system: NCI-H1734
Procedure, shortened: as §1

NCI-H1755 = system: NCI-H1755
Procedure, shortened: as §1

NCI-H1792 = system: NCI-H1792
Procedure, shortened: as §1

NCI-H1793 = system: NCI-H1793
Procedure, shortened: as §1

NCI-H1993 = system: NCI-H1993
Procedure, shortened: as §1

NCI-H2009 = system: NCI-H2009
Procedure, shortened: as §1

NCI-H2170 = system: NCI-H2170
Procedure, shortened: as §1

NCI-H2228 = system: NCI-H2228
Procedure, shortened: as §1

NCI-H2347 = system: NCI-H2347
Procedure, shortened: as §1

NCI-H358 = system: NCI-H358
Procedure, shortened: as §1

NCI-H647 = system: NCI-H647
Procedure, shortened: as §1

NCI-H838 = system: NCI-H838
Procedure, shortened: as §1

SK-MES-1 = system: SK-MES-1
Procedure, shortened: as §1

UMC-11 = system: UMC-11
Procedure, shortened: as §1

Nc1ccn([C@@H]2O[C@H](CO)[C@@H](O)[C@@H]2O)c(=O)n1 [Cytarabine] + Cc1nc(NC(=O)N2CCC[C@H]2C(N)=O)sc1-c1ccnc(C(C)(C)C(F)(F)F)c1 [Alpelisib] (partner 2 µM)
relative viability (COR-L 105; first compound 0.005 µM): 0.86 | relative viability (COR-L 105; first compound 0.01581 µM): 1.07 | relative viability (COR-L 105; first compound 0.05 µM): 0.675 | relative viability (COR-L 105; first compound 0.1581 µM): 0.444 | relative viability (COR-L 105; first compound 0.5 µM): 0.355 | relative viability (COR-L23; first compound 0.005 µM): 0.63 | relative viability (COR-L23; first compound 0.01581 µM): 0.472 | relative viability (COR-L23; first compound 0.05 µM): 0.458 | relative viability (COR-L23; first compound 0.1581 µM): 0.176 | relative viability (COR-L23; first compound 0.5 µM): 0.104 | relative viability (HARA; first compound 0.005 µM): 0.598 | relative viability (HARA; first compound 0.01581 µM): 0.376 | relative viability (HARA; first compound 0.05 µM): 0.416 | relative viability (HARA; first compound 0.1581 µM): 0.167 | relative viability (HARA; first compound 0.5 µM): 0.143 | relative viability (HCC-15; first compound 0.005 µM): 0.832 | relative viability (HCC-15; first compound 0.01581 µM): 0.878 | relative viability (HCC-15; first compound 0.05 µM): 0.844 | relative viability (HCC-15; first compound 0.1581 µM): 0.745 | relative viability (HCC-15; first compound 0.5 µM): 0.546 | relative viability (HOP-62; first compound 0.005 µM): 0.793 | relative viability (HOP-62; first compound 0.01581 µM): 0.394 | relative viability (HOP-62; first compound 0.05 µM): 0.348 | relative viability (HOP-62; first compound 0.1581 µM): 0.0724 | relative viability (HOP-62; first compound 0.5 µM): 0.102 | relative viability (NCI-H1355; first compound 0.005 µM): 0.825 | relative viability (NCI-H1355; first compound 0.01581 µM): 0.758 | relative viability (NCI-H1355; first compound 0.05 µM): 0.756 | relative viability (NCI-H1355; first compound 0.1581 µM): 0.363 | relative viability (NCI-H1355; first compound 0.5 µM): 0.264 | relative viability (NCI-H1395; first compound 0.005 µM): 1.04 | relative viability (NCI-H1395; first compound 0.01581 µM): 0.858 | relative viability (NCI-H1395; first compound 0.05 µM): 0.583 | relative viability (NCI-H1395; first compound 0.1581 µM): 0.423 | relative viability (NCI-H1395; first compound 0.5 µM): 0.441 | relative viability (NCI-H1734; first compound 0.005 µM): 0.39 | relative viability (NCI-H1734; first compound 0.01581 µM): 0.265 | relative viability (NCI-H1734; first compound 0.05 µM): 0.204 | relative viability (NCI-H1734; first compound 0.1581 µM): 0.139 | relative viability (NCI-H1755; first compound 0.005 µM): 0.925 | relative viability (NCI-H1755; first compound 0.01581 µM): 0.878 | relative viability (NCI-H1755; first compound 0.05 µM): 0.75 | relative viability (NCI-H1755; first compound 0.1581 µM): 0.244 | relative viability (NCI-H1755; first compound 0.5 µM): 0.273 | relative viability (NCI-H1792; first compound 0.005 µM): 0.553 | relative viability (NCI-H1792; first compound 0.01581 µM): 0.644 | relative viability (NCI-H1792; first compound 0.05 µM): 0.659 | relative viability (NCI-H1792; first compound 0.1581 µM): 0.387 | relative viability (NCI-H1792; first compound 0.5 µM): 0.343 | relative viability (NCI-H1793; first compound 0.005 µM): 0.573 | relative viability (NCI-H1793; first compound 0.01581 µM): 0.687 | relative viability (NCI-H1793; first compound 0.05 µM): 0.691 | relative viability (NCI-H1793; first compound 0.1581 µM): 0.389 | relative viability (NCI-H1793; first compound 0.5 µM): 0.251 | relative viability (NCI-H1993; first compound 0.005 µM): 0.691 | relative viability (NCI-H1993; first compound 0.01581 µM): 0.636 | relative viability (NCI-H1993; first compound 0.05 µM): 0.642 | relative viability (NCI-H1993; first compound 0.1581 µM): 0.501 | relative viability (NCI-H1993; first compound 0.5 µM): 0.517 | relative viability (NCI-H2009; first compound 0.005 µM): 1.14 | relative viability (NCI-H2009; first compound 0.01581 µM): 1.13 | relative viability (NCI-H2009; first compound 0.05 µM): 1.26 | relative viability (NCI-H2009; first compound 0.1581 µM): 0.937 | relative viability (NCI-H2009; first compound 0.5 µM): 0.473 | relative viability (NCI-H2170; first compound 0.01581 µM): 0.606 | relative viability (NCI-H2170; first compound 0.05 µM): 0.562 | relative viability (NCI-H2170; first compound 0.1581 µM): 0.389 | relative viability (NCI-H2170; first compound 0.5 µM): 0.314 | relative viability (NCI-H2228; first compound 0.005 µM): 0.403 | relative viability (NCI-H2228; first compound 0.01581 µM): 0.201 | relative viability (NCI-H2228; first compound 0.05 µM): 0.251 | relative viability (NCI-H2228; first compound 0.1581 µM): 0.207 | relative viability (NCI-H2228; first compound 0.5 µM): 0.164 | relative viability (NCI-H2347; first compound 0.005 µM): 1.22 | relative viability (NCI-H2347; first compound 0.01581 µM): 0.964 | relative viability (NCI-H2347; first compound 0.05 µM): 0.868 | relative viability (NCI-H2347; first compound 0.1581 µM): 0.691 | relative viability (NCI-H2347; first compound 0.5 µM): 0.663 | relative viability (NCI-H358; first compound 0.005 µM): 0.573 | relative viability (NCI-H358; first compound 0.01581 µM): 0.516 | relative viability (NCI-H358; first compound 0.05 µM): 0.363 | relative viability (NCI-H358; first compound 0.1581 µM): 0.177 | relative viability (NCI-H358; first compound 0.5 µM): 0.148 | relative viability (NCI-H647; first compound 0.005 µM): 0.491 | relative viability (NCI-H647; first compound 0.01581 µM): 0.356 | relative viability (NCI-H647; first compound 0.05 µM): 0.142 | relative viability (NCI-H647; first compound 0.1581 µM): 0.086 | relative viability (NCI-H647; first compound 0.5 µM): 0.0694 | relative viability (NCI-H838; first compound 0.005 µM): 0.886 | relative viability (NCI-H838; first compound 0.01581 µM): 1.12 | relative viability (NCI-H838; first compound 0.05 µM): 0.909 | relative viability (NCI-H838; first compound 0.1581 µM): 0.452 | relative viability (NCI-H838; first compound 0.5 µM): 0.252 | relative viability (SK-MES-1; first compound 0.005 µM): 0.702 | relative viability (SK-MES-1; first compound 0.01581 µM): 0.688 | relative viability (SK-MES-1; first compound 0.05 µM): 0.393 | relative viability (SK-MES-1; first compound 0.1581 µM): 0.243 | relative viability (SK-MES-1; first compound 0.5 µM): 0.21 | relative viability (UMC-11; first compound 0.005 µM): 0.496 | relative viability (UMC-11; first compound 0.01581 µM): 0.463 | relative viability (UMC-11; first compound 0.05 µM): 0.375 | relative viability (UMC-11; first compound 0.1581 µM): 0.192 | relative viability (UMC-11; first compound 0.5 µM): 0.18

From the supplement of paper PMC10307832
